# Experimental data as given in patent publication US20080032939A1, “Iridoid-saccharide compound and method of using same” (Health Research, Inc., priority 2004, published 2008).
# How the values were obtained:
# [1] = test system: colo-26 tumors; assay: In vivo efficacy in mice bearing colo-26 tumors
# Experimental: (§1) All the plant products isolated from the bark of Plumeria bicolor were insoluble in water and were dissolved in 1% Tween 80 in 5% dextrose solution. Among these analogs, plumeiride 3 produced good cytotoxicity producing a lethal dose 60% (LD60) with 200 μM, and an LD20 with 400 μM C-17 in colo-26 tumor cells. […] Plumieride 3 was then evaluated for in vivo efficacy in mice (6 mice/group) bearing colo-26 tumors at variable concentrations. […] This response was doubled to 24 days when the dose was increased to 100 mg/kg/mouse (FIG. 3).
# (§2) On day 9, the drug administration was stopped and tumors were allowed to grow until they reached the size of approximately 350 mm^3 in volume. The drug injection was resumed (150 mg/kg/mouse) daily for another 7 days.
# [2] = test system: colo-26 tumor cells; assay: In vitro cytotoxicity in Colo-26 tumor cells; assay type: cell-based
# Experimental: Vehicle: 1% Tween 80 in 5% dextrose solution.
# as §1
# [3] = Preliminary screening of toxicity in treated mice; assay type: in vivo; details: mice treated with compound 3
# Experimental: as §2
# [4] = colo-26 tumor cells, vehicle 1% Tween 80 in 5% dextrose
compound,measurement,setting,value
"COC(=O)C1=CO[C@@H](O[C@@H]2O[C@H](CO)[C@@H](O)[C@H](O)[C@H]2O)[C@H]2[C@@H]1C=C[C@@]21C=C([C@H](C)O)C(=O)O1 [compound 3, plumieride]",tumor volume after injections were re-initiated,"[1]; 150 mg/kg/mouse daily for another 7 days, resumed at tumor size approximately 350 mm^3",regressed to almost half the size
same,tumor inhibition,"[1]; 150 mg/kg/mouse, as long as the drug was injected (until day 9)",complete tumor inhibition
same,time with no increase in tumor volume,"[1]; dose 100 mg/kg/mouse, mice bearing colo-26 tumors",24 days
same,time with no increase in tumor volume,"[1]; injected daily with 50 mg/kg/mouse, mice bearing colo-26 tumors",12 days
same,tumor growth delay versus untreated control mice,"[1]; mice bearing colo-26 tumors, variable concentrations",significant tumor growth delay
same,LD20,[2]; [4],400 µM
same,lethal dose 60% (LD60),[2]; [4],200 µM
same,relative effectiveness among the components isolated from the bark,"[2]; compared with triterpenoids 1, 2",most effective
same,"visible toxicity, body weight, daily habits",[3],no visible toxicity as well as a change in body weight or daily habits
